Structures are written as SMILES. A value given as a limit tells only on which side of the number the result lay.

For the assay, the target named is T1, Thymidine phosphorylase (Homo sapiens, UniProt P19971).
T1 sequence (P19971 whole entry): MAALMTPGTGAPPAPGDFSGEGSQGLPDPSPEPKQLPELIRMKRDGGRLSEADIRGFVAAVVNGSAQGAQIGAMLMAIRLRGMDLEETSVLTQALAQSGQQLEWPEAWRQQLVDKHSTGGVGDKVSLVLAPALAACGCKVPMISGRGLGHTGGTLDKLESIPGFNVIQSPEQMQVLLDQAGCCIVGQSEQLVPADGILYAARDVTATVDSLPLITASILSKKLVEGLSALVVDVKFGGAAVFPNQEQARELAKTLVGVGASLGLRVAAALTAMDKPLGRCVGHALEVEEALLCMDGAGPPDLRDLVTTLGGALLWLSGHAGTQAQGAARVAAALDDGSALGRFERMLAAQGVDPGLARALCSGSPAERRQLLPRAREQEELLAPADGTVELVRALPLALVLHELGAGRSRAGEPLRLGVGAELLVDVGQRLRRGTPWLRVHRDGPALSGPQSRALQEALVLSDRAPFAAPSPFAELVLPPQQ
Description: Inhibition of human TPase in presence of 100 uM thymidine

`CNC(=O)c1ncn([C@@H]2O[C@H](COC(c3ccccc3)(c3ccccc3)c3ccccc3)[C@@H](O)[C@H]2O)c1N` showed an IC50 of 137 µM.

In the case of `COCCOCn1cnc2c(ncn2[C@@H]2O[C@H](COC(c3ccccc3)(c3ccccc3)c3ccccc3)[C@@H](OC(C)=O)[C@H]2OC(C)=O)c1=O`, the IC50 is above 20 µM.

Regarding `NC(=O)c1ncn([C@@H]2O[C@H](COC(c3ccccc3)(c3ccccc3)c3ccccc3)[C@@H](O)[C@H]2O)c1N`, the IC50 was at least 40 µM.

`O=c1c2ncn([C@@H]3O[C@H](COCc4ccccc4)[C@@H](O)[C@H]3O)c2ncn1Cc1ccccc1` yielded an IC50 above 200 µM.

Take `COCCOCNC(=O)c1ncn([C@@H]2O[C@H](COC(c3ccccc3)(c3ccccc3)c3ccccc3)[C@@H](O)[C@H]2O)c1N`: the IC50 is above 75 µM.

The compound `OC[C@@H](COC(c1ccccc1)(c1ccccc1)c1ccccc1)O[C@H](CO)n1cnc2c(O)ncnc21` came in with an IC50 above 200 µM.

Turning to `COCCOCn1cnc2c(ncn2[C@@H]2O[C@H](COC(c3ccccc3)(c3ccccc3)c3ccccc3)[C@@H](O)[C@H]2O)c1=O`, the IC50 was above 100 µM.
